Source: patent US6969449B2, “Multi-well plate and electrode assemblies for ion channel assays” (Vertex Pharmaceuticals (San Diego) LLC, priority 2000, dated 2005)

Key:
HL5 cells = assay type: cell-based
IRK1 channel = IRK1 channel (Rattus norvegicus, UniProt Q64273)
IRK1 channel, sequence (Q64273 whole entry): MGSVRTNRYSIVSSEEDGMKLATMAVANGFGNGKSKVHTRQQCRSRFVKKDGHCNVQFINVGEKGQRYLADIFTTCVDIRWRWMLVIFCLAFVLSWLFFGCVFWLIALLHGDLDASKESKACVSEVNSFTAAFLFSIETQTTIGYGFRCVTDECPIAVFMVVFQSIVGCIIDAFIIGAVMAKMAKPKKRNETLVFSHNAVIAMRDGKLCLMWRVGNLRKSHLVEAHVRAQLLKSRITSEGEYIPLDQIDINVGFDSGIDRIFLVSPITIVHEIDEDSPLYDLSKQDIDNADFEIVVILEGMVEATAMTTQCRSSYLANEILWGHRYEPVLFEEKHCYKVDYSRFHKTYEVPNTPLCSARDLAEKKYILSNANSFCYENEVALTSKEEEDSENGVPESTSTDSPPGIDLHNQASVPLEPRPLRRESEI

Question: For CC[N+](CC)(CC)CC [TEA, Tetraethylammonium], which “block of response to electrical stimulation” value (wild-type HEK-293 cells) is on record?
Answer: partially blocks the response

Question: Which “block of the positive response” value (HL5 cells) does the source give for NC1=N[C@H](O)[C@H]2[C@H]3O[C@]4(O)O[C@@H]([C@@H](O)[C@@]2(N1)[C@@H]4O)[C@]3(O)CO [TTX, tetrodotoxin] here?
Answer: partially blocks the positive response

Question: And the “effect on sustained signal above 50 V/cm” value (HL5 cells)?
Answer: unaffected

Question: [Ba+2].[Cl-].[Cl-] [barium chloride] was tested. Which “voltage change during stimulation with barium block” value (IRK1 channel) did it give?
Answer: no detectable voltage change
